Results: US8338472B2, “Hexahydrocyclopentyl[F]indazole carboxamides and derivatives thereof as selective glucocorticoid receptor modulators” (Merck Sharp & Dohme Corp., priority 2008, dated 2012)
pEC50, pKi: −log10 of the molar value. Where two headings read alike, the source gives them in different places.

What was measured:
Glucocorticoid Receptor = biological target: T1, Glucocorticoid Receptor (Homo sapiens, UniProt P04150); experiment: Trans-Activation Modulation of Glucocorticoid Receptor (GRAMMER), MMTV-LUC reporter gene in A549 cells; format: cell-based; settings: Table 1; for Emax: A549, A549 cells, read-out: Transactivation A549 Cells GRAMMER Emax; for Emax / Transactivation A549 Cells GRAMMER Emax: Emax relative to 300 nM dexamethasone; for pEC50: inflection point, read-out: Transactivation A549 Cells GRAMMER IP; for pEC50 / Transactivation A549 Cells GRAMMER Emax: A549 cells
T1 construct: These cells express large amount of the GR and are very responsive to GC treatment; endogenous in cells; host or cells: A549 cells transiently transfected with the MMTV-LUC reporter
T1 sequence (P04150 1-777): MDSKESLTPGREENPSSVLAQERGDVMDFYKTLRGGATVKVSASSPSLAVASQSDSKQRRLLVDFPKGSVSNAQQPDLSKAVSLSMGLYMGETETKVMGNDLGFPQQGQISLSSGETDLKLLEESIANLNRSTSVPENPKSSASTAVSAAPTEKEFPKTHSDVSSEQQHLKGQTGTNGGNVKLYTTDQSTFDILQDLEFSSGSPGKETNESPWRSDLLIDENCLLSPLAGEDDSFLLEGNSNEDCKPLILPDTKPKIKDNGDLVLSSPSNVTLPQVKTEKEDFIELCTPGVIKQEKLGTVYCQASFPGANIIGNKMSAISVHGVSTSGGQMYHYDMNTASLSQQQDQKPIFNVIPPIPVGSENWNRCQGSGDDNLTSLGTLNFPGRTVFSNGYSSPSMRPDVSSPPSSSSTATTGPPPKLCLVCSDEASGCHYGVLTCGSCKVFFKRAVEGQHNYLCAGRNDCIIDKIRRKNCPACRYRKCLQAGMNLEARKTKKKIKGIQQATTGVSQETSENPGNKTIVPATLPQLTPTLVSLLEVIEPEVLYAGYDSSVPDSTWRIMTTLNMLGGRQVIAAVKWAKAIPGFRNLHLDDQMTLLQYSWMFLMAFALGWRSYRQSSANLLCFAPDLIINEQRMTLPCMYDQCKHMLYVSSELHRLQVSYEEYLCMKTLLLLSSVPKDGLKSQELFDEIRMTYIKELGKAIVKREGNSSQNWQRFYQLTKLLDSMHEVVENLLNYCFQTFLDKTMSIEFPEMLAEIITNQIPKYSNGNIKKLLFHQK
In short: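 Luciferase from a transiently transfected MMTV-LUC reporter was measured after 24 h compound exposure (≤1% DMSO) in A549 or MDA-MB-453 cells. For antagonism, the decrease of 10 nM dexamethasone-induced signal was calculated. For agonism, Emax was referenced to 300 nM dexamethasone.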

human GR = biological target: T2, human GR (Homo sapiens, UniProt P04150); experiment: Transrepression Assay (GITAR), TNFα-β-lactamase reporter gene in U937 cells; format: cell-based; settings: for GITAR Greater than by GRAMMER % SEP: GITAR Emax minus GRAMMER Emax; for pEC50: inflection point, read-out: Transrepression U937 Cells GITAR IP; for pEC50 / Transrepression U937 Cells GITAR Emax: U937 cells
T2 construct: U937 cells contain an endogenous glucocorticoid receptor (GR); endogenous in cells; host or cells: U937 cells stably transfected with the TNF-alpha promoter/beta-lactamase reporter
T2 sequence (P04150 1-777): T1 sequence (P04150 1-777)
In short: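 Repression of PMA (5 ng/ml final)/LPS (100 ng/ml final)-induced TNF-α promoter activity, read as β-lactamase cleavage of CCF2-AM, in stably transfected U937 cells expressing native GR. Compound added 30-45 min before stimulation, overnight (~18 hr) 37° C; normalized to 100 nM dexamethasone (100%).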

[1] = biological target: T3, glucocorticoid receptor (GR) (Homo sapiens, UniProt P04150); experiment: Ligand binding assay (GR BIND), 3H-dexamethasone displacement in MDA-MB-453 cell lysate; settings: GR BIND Ki, Table 1
T3 sequence (P04150 1-777): T1 sequence (P04150 1-777)
Experimental: Binding Buffer: TEGM (10 mM Tris-HCl, 1 mM EDTA, 10% glycerol, 1 mM beta-mecaptoethanol, 10 mM Sodium Molybdate, pH 7.2)
50% HAP Slurry: Calbiochem Hydroxylapatite, Fast Flow, in 10 mM Tris, pH 8.0 and 1 mM EDTA.
Wash Buffer: 40 mM Tris, pH7.5, 100 mM KCl, 1 mM EDTA and 1 mM EGTA.
Dexmethasone-methyl-^3H, (DEX*); (Amersham cat# TRK645)
Dexamethasone(DEX) (Sigma, cat# D1756):
The cell pellet is washed twice with TEGM (10 mM Tris-HCl, 1 mM EDTA, 10% glycerol, 1 mM beta-mercaptoethanol, 10 mM Sodium Molybdate, pH 7.2). After the final wash, the cells are resuspended in TEGM at a concentration of 10^7 cells/mL. The cell suspension is snap frozen in liquid nitrogen or ethanol/dry ice bath and transferred to −80° C. freezer on dry ice. Before setting up the binding assay, the frozen samples are left on ice-water to just thaw (˜1 hr). Then the samples are centrifuged at 12,500 g to 20,000 g for 30 min at 4° C. The supernatant is used to set-up assay right away. If using 50 μL of supernatant, the test compound can be prepared in 50 μL of the TEGM buffer.
Procedure for Multiple Compound Screening
1×TEGM buffer is prepared, and the isotope-containing assay mixture is prepared in the following order: EtOH (2% final concentration in reaction), ^3H-DEX (Amersham Biosciences) and 1×TEGM. [e.g. For 100 samples, 200 μL (100×2) of EtOH+4.25 μL of 1:10 ^3H-Dex stock+2300 μL (100×23) 1×TEGM]. The compound is serially diluted, e.g., if starting final conc. is 1 μM, and the compound is in 25 μL of solution, for duplicate samples, 75 μL of 4×1 μM solution is made and 3 μL of 100 μM is added to 72 μL of buffer, and 1:5 serial dilution.
25 μL of ^3H-DEX (6 nM) trace and 25 μL compound solution are first mixed together, followed by addition of 50 μL receptor solution. The reaction is gently mixed, spun briefly at about 200 rpm and incubated at 4° C. overnight. 100 μL of 50% HAP slurry is prepared and added to the incubated reaction which is then vortexed and incubated on ice for 5 to 10 minutes. The reaction mixture is vortexed twice more to resuspend HAP while incubating reaction. The samples in 96-well format are then washed in wash buffer using The FilterMate™ Universal Harvester plate washer (Packard). The washing process transfers HAP pellet containing ligand-bound expressed receptor to Unifilter-96 GF/B filter plate (Packard). The HAP pellet on the filter plate is incubated with 50 μL of MICROSCINT (Packard) scintillint for 30 minutes before being counted on the TopCount microscintillation counter (Packard). IC50s are calculated using DEX as a reference.

[2] = U-937, U937 cells, activity repressed by 100 nM dexamethasone = 100%, Table 1, read-out: Transrepression U937 Cells GITAR Emax
[3] = U-937, text statement, 100 nM dexamethasone = 100%, read-out: maximal activity in the transrepression assay (GITAR)
[4] = activity repressed by 100 nM dexamethasone = 100%, Table 1

Row | Emax (Glucocorticoid Receptor) | pEC50 (Glucocorticoid Receptor) | GITAR Greater than by GRAMMER % SEP (human GR; Table 1) | Emax (human GR; [2]) | Emax (human GR; [3]) | pEC50 (human GR; Table 1) | pKi [1] | Transactivation A549 Cells GRAMMER Emax (Glucocorticoid Receptor) | Transrepression U937 Cells GITAR Emax (human GR; [4]) | Compound
1 | 78.2% | 6.50 | 6.1% | 84.3% | > 5% | 6.65 | 8.38 |  |  | CCN(CC(O)C(F)(F)F)C(=O)[C@H]1CCC2=Cc3c(cnn3-c3ccccc3)C[C@@]21C (stereo partly drawn) [Compound 76, (4αR,5S)-N-ethyl-4α-methyl-1-phenyl-N-(3,3,3-trifluoro-2-hydroxypropyl)-1,4,4α,5,6,7-hexahydrocyclopenta[f]indazole-5-carboxamide]
2 | 21.6% | 6.44 | 35.3% | 56.9% | > 5% | 6.53 | 8.66 |  |  | COc1ccccc1CCN(CC(O)C(F)(F)F)C(=O)[C@H]1CCC2=Cc3c(cnn3-c3ccc(F)cc3)C[C@@]21C (stereo partly drawn) [Compound 83, (4αR,5S)-1-(4-fluorophenyl)-N-[2-(2-methoxyphenyl)ethyl] -4α-methyl-N-(3,3,3-trifluoro-2-hydroxypropyl)-1,4,4α,5,6,7-hexahydrocyclopenta[f]indazole-5-carboxamide]
3 |  | 6.55 | 4.7% |  |  | 6.84 | 8.82 | 40.2% | 44.9% | C[C@]12Cc3cnn(-c4ccc(F)cc4)c3C=C1CC[C@@H]2C(=O)N(CCc1ccccc1F)CC(O)C(F)(F)F (stereo partly drawn) [Compound 92, (4αR,5S)-1-(4-fluorophenyl)-N-[2-(2-fluorophenyl)ethyl]-4α-methyl-N(3,3,3-trifluoro-2-hydroxypropyl)-1,4,4α,5,6,7-hexahydrocyclopenta[f]indazole-5-carboxamide]

Further lines, the compound ahead of its results:

Row | Compound | Emax (Glucocorticoid Receptor) | pEC50 (Glucocorticoid Receptor) | GITAR Greater than by GRAMMER % SEP (human GR; Table 1) | Emax (human GR; [2]) | Emax (human GR; [3]) | pEC50 (human GR; Table 1) | pKi [1] | Transactivation A549 Cells GRAMMER Emax (Glucocorticoid Receptor) | Transrepression U937 Cells GITAR Emax (human GR; [4])
4 | COc1ccccc1CCN(CC(O)CC(F)(F)F)C(=O)[C@H]1CCC2=Cc3c(cnn3-c3ccc(F)cc3)C[C@@]21C (stereo partly drawn) [Compound 86, (4αR,5S)-1-(4-fluorophenyl)-N-[2-(2-methoxyphenyl)ethyl]-4α-methyl-N-(4,4,4-trifluoro-2-hydroxybutyl)-1,4,4α,5 ,6,7-hexahydrocyclopenta[f]indazole-5-carboxamide] | 18.8% | 6.39 | 35.1% | 53.9% | > 5% | 6.06 | 7.94 |  | 
5 | CCN(CC(O)C(F)(F)F)C(=O)[C@H]1CCC2=Cc3c(cnn3-c3ccccc3)C[C@@]21C (stereo partly drawn) [Compound 77, (4αR,5S)-N-ethyl-4α-methyl-1-phenyl-N-(3,3,3-trifluoro-2-hydroxypropyl)-1,4,4α,5,6,7-hexahydrocyclopenta[f]indazole-5-carboxamide] |  | 6.52 | 10.2% |  |  | 6.57 | 8.01 | 67.8% | 78.0%
6 | CO[C@H](C)CN(C)C(=O)[C@H]1CCC2=Cc3c(cnn3-c3ccc(F)cc3)C[C@@]21C [Compound 89, (4αR,5S)-1-(4-fluorophenyl)-N-[(2R)-2-methoxypropyl]-N,4α-dimethyl-1,4,4α,5,6,7-hexahydrocyclopenta[f]indazole-5-carboxamide] | 3.7% | 6.31 | 6.5% | 10.2% | > 5% | 5.46 | 6.92 |  | 
7 | C[C@]12Cc3cnn(-c4ccc(F)cc4)c3C=C1CC[C@@H]2C(=O)N(CCC#N)CCC#N [Compound 13, (4αR,5S)-N,N-bis(2-cyanoethyl)-1-(4-fluorophenyl)-4α-methyl-1,4,4α,5,6,7-hexahydrocyclopenta[f]indazole-5-carboxamide] | 14.4% | 6.29 | 13.6% | 28% | > 5% | 5.97 | 7.45 |  | 
